The record followed here is patent US20070082880A1 (priority 2005, published 2007).

The assay has as its target T1, human PKCθ full length enzyme (Homo sapiens, UniProt Q04759).
T1 construct: human PKCθ full length enzyme (Panvera Catalog No. P2996); purchased Panvera P2996
Briefly: PKCθ IMAP Assay. The assay is classed as biochemical. The following applies: average value when one or more samples were tested; ATP 6 uM, PKCθ 1 nM. The essentials:
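IMAP fluorescence polarization after 20 min with binding beads measured phosphorylation of 100 nM 5FAM-peptide. Reactions held 1 nM full-length human PKCθ, 6 uM ATP, 5% DMSO and DTT-containing buffer, 25 min at room temperature. Compounds tested as 2:1 serial dilutions; controls lacked ATP or enzyme.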

T1 sequence (Q04759 whole entry): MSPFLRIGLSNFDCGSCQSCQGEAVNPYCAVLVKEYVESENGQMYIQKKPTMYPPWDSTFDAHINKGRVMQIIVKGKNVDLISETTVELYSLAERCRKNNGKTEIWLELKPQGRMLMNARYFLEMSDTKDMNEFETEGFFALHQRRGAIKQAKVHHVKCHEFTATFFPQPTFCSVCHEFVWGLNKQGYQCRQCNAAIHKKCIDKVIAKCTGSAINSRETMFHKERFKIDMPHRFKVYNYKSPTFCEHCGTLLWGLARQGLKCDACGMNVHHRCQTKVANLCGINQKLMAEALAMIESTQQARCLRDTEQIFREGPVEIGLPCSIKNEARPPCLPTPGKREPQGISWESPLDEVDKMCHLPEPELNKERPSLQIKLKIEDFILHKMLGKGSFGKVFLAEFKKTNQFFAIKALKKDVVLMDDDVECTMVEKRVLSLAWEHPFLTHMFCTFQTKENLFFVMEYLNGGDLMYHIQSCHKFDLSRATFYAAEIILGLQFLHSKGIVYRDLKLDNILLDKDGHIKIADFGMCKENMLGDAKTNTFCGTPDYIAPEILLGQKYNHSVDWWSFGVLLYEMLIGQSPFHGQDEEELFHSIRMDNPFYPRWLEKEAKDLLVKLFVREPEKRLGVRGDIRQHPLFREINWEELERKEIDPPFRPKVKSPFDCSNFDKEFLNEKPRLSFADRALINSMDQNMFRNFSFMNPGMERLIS

Consider `N#Cc1cnc2sc(C#Cc3cnc(N)nc3)cc2c1Nc1ccc2[nH]ccc2c1` [Compound 228, 2-[(2-aminopyrimidin-5-yl)ethynyl]-4-(1H-indol-5-ylamino)thieno[2,3-b]pyridine-5-carbonitrile], for which the IC50 was > 1500 nM. In turn, `COCCN1CCN(Cc2cccc(-c3cc4c(Nc5ccc6[nH]ccc6c5)c(C#N)cnc4s3)c2)CC1` [Compound 178, 4-(1H-indol-5-ylamino)-2-(3-{[4-(2-methoxyethyl)piperazin-1-yl]methyl}phenyl)thieno[2,3-b]pyridine-5-carbonitrile] registered an IC50 of 300 nM.

For `Cc1c(Nc2c(C#N)cnc3sc(-c4ccc(S(N)(=O)=O)cc4)cc23)ccc2[nH]ccc12` [Compound 241, 4-{5-cyano-4-[(4-methyl-1H-indol-5-yl)amino]thieno[2,3-b]pyridin-2-yl}benzenesulfonamide], inhibition was half-maximal at 13 nM (IC50).

Take `COc1ccc(C(=O)N(C)C)cc1-c1cc2c(Nc3ccc4[nH]ccc4c3C)c(C#N)cnc2s1` [Compound 369, 3-{5-cyano-4-[(4-methyl-1H-indol-5-yl)amino]thieno[2,3-b]pyridin-2-yl}-4-methoxy-N,N-dimethylbenzamide]: the IC50 came to 30 nM. To `Cc1c(Nc2c(C#N)cnc3sc(-c4ccccc4S(=O)(=O)N(C)C)cc23)ccc2[nH]ccc12` [Compound 238, 2-{5-cyano-4-[(4-methyl-1H-indol-5-yl)amino]thieno[2,3-b]pyridin-2-yl}-N,N-dimethylbenzenesulfonamide] belongs 440 nM; to `COCCN(C)Cc1cccc(-c2cc3c(Nc4ccc5[nH]ccc5c4)c(C#N)cnc3s2)c1` [Compound 162, 4-(1H-indol-5-ylamino)-2-(3-{[(2-methoxyethyl)(methyl)amino]methyl}phenyl)thieno[2,3-b]pyridine-5-carbonitrile], 270 nM; to `N#Cc1cnc2sc(-c3cccc(CO)c3)cc2c1Nc1cccc2[nH]ccc12` [Compound 193, 2-[3-(hydroxymethyl)phenyl]-4-(1H-indol-4-ylamino)thieno[2,3-b]pyridine-5-carbonitrile], 53 nM. `Cc1c(Nc2c(C#N)cnc3sc(-c4cncc(CN(C)C)c4)cc23)ccc2[nH]ccc12` [Compound 462, 2-{5-[(dimethylamino)methyl]pyridin-3-yl}-4-[(4-methyl-1H-indol-5-yl)amino]thieno[2,3-b]pyridine-5-carbonitrile] displayed an IC50 of 83 nM. `Cc1c(Nc2c(C#N)cnc3sc(-c4ccccc4OC[C@H](O)CO)cc23)ccc2[nH]ccc12` [Compound 493, 2-(2-{[(2R)-2,3-dihydroxypropyl]-oxy}phenyl)-4-[(4-methyl-1H-indol-5-yl)amino]thieno[2,3-b]pyridine-5-carbonitrile] displayed an IC50 of 45 nM. Consider `CCCOc1ccc(CN(C)C)cc1-c1cc2c(Nc3ccc4[nH]ccc4c3C)c(C#N)cnc2s1` [Compound 384, 2-{5-[(dimethylamino)methyl]-2-propoxyphenyl}-4-[(4-methyl-1H-indol-5-yl)amino]thieno[2,3-b]pyridine-5-carbonitrile], for which the IC50 is 93 nM. `Cc1c(Nc2c(C#N)cnc3sc(/C=C/C(=O)N4CCC(O)C4)cc23)ccc2[nH]ccc12` (centres unmarked) [Compound 310, 2-[(1E)-3-(3-hydroxypyrrolidin-1-yl)-3-oxoprop-1-en-1-yl]-4-[(4-methyl-1H-indol-5-yl)amino]thieno[2,3-b]pyridine-5-carbonitrile] came in with an IC50 of 41 nM.

In the case of `COC(=O)Nc1ccc(-c2cc3c(Nc4ccc5[nH]ccc5c4C)c(C#N)cnc3s2)cc1` [Compound 333, methyl (4-{5-cyano-4-[(4-methyl-1H-indol-5-yl)amino]thieno[2,3-b]pyridin-2-yl}phenyl)carbamate], the IC50 worked out at 616 nM. Molecule `Cn1ccnc1-c1cc2c(Nc3ccc4[nH]ccc4c3)c(C#N)cnc2s1` [Compound 433, 4-(1H-indol-5-ylamino)-2-(1-methyl-1H-imidazol-2-yl)thieno[2,3-b]pyridine-5-carbonitrile] registered an IC50 of 527 nM. As for `CN(C)Cc1cccc(-c2cc3c(Nc4cccnc4)c(C#N)cnc3s2)c1` [Compound 326, 2-{3-[(dimethylamino)methyl]phenyl}-4-(pyridin-3-ylamino)thieno[2,3-b]pyridine-5-carbonitrile], half-maximal inhibition (IC50) was put at 31000 nM. Turning to `Cc1c(Nc2c(C#N)cnc3scc(-c4cccc(CN(C)C)c4)c23)ccc2[nH]ccc12` [Compound 508, 3-{3-[(dimethylamino)methyl]phenyl}-4-[(4-methyl-1H-indol-5-yl)amino]thieno[2,3-b]pyridine-5-carbonitrile], the IC50 amounted to 11 nM. To `CCOc1ccc(CN(C)C)cc1-c1cc2c(Nc3ccc4[nH]ccc4c3C)c(C#N)cnc2s1` [Compound 367, 2-{5-[(dimethylamino)methyl]-2-ethoxyphenyl}-4-[(4-methyl-1H-indol-5-yl)amino]thieno[2,3-b]pyridine-5-carbonitrile] belongs 7 nM. Regarding `N#Cc1cnc2sc(C(=O)NCCO)cc2c1Nc1ccc2[nH]ccc2c1` [Compound 254, 5-cyano-N-(2-hydroxyethyl)-4-(1H-indol-5-ylamino)thieno[2,3-b]pyridine-2-carboxamide], the IC50 turned out to be 864 nM.

Molecule `N#Cc1cnc2sc(/C=C/c3ccccc3)cc2c1Nc1ccc2[nH]ccc2c1` [Compound 400, 4-(1H-indol-5-ylamino)-2-[(E)-2-phenylvinyl]thieno[2,3-b]pyridine-5-carbonitrile] returned a half-inhibitory concentration (IC50) of 437 nM.

Turning to `COc1ccc(CNCCO)cc1-c1cc2c(Nc3ccc4[nH]ccc4c3C)c(C#N)cnc2s1` [Compound 517, 2-(5-{[(2-hydroxyethyl)amino]methyl}-2-methoxyphenyl)-4-[(4-methyl-1H-indol-5-yl)amino]thieno[2,3-b]pyridine-5-carbonitrile], the IC50 stood at 2 nM. In turn, `Cc1c(Nc2c(C#N)cnc3sc(/C=C/C(=O)N4CCN(C)CC4)cc23)ccc2[nH]ccc12` [Compound 295, 4-[(4-methyl-1H-indol-5-yl)amino]-2-[(1E)-3-(4-methylpiperazin-1-yl)-3-oxoprop-1-en-1-yl]thieno[2,3-b]pyridine-5-carbonitrile] registered an IC50 of 43 nM.

For the molecule `Cc1c(Nc2c(C#N)cnc3sc(-c4ccc(CN5CCN(C)CC5)cc4)cc23)ccc2[nH]ccc12` [Compound 121, 4-[(4-methyl-1H-indol-5-yl)amino]-2-{4-[(4-methylpiperazin-1-yl)methyl]phenyl}thieno[2,3-b]pyridine-5-carbonitrile], the IC50 was determined as 38 nM. To `N#Cc1cnc2sc(/C=C/C(=O)Nc3cccnc3)cc2c1Nc1ccc2[nH]ccc2c1` [Compound 293, (2E)-3-[5-cyano-4-(1H-indol-5-ylamino)thieno[2,3-b]pyridin-2-yl]-N-pyridin-3-ylacrylamide] belongs 33600 nM. Turning to `Cc1c(Nc2c(C#N)cnc3sc(-c4cccnn4)cc23)ccc2[nH]ccc12` [Compound 523, 4-[(4-methyl-1H-indol-5-yl)amino]-2-pyridazin-3-ylthieno[2,3-b]pyridine-5-carbonitrile], the half-maximal inhibitory concentration (IC50) was determined as 15 nM. As to `N#Cc1cnc2sc(/C=C/CCO)cc2c1Nc1ccc2[nH]ccc2c1` [Compound 403, 2-[(1E)-4-hydroxybut-1-en-1-yl]-4-(1H-indol-5-ylamino)thieno[2,3-b]pyridine-5-carbonitrile], half-maximal inhibition (IC50) required 394 nM. `COc1ccc(CN(C)C)cc1-c1cc2c(Nc3ccc4[nH]ccc4c3)c(C#N)cnc2s1` [Compound 155, 2-{5-[(dimethylamino)methyl]-2-methoxyphenyl}-4-(1H-indol-5-ylamino)thieno[2,3-b]pyridine-5-carbonitrile] came in with an IC50 of 38 nM.

The molecule `N#Cc1cnc2sc(-c3cccc(CNCC4CCCO4)c3)cc2c1Nc1ccc2[nH]ccc2c1` (centres unmarked) [Compound 179, 4-(1H-indol-5-ylamino)-2-(3-{[(tetrahydrofuran-2-ylmethyl)amino]methyl}phenyl) thieno[2,3-b] pyridine-5-carbonitrile] gave an IC50 of 150 nM. The molecule `CCCOc1c(CN(C)C)cc(C)cc1-c1cc2c(Nc3ccc4[nH]ccc4c3C)c(C#N)cnc2s1` [Compound 455, 2-{3-[(dimethylamino)methyl]-5-methyl-2-propoxyphenyl}-4-[(4-methyl-1H-indol-5-yl)amino]thieno[2,3-b]pyridine-5-carbonitrile] yielded an IC50 of 29 nM.

Consider `Cc1c(Nc2c(C#N)cnc3sc(-c4ccccc4OC[C@H](C)O)cc23)ccc2[nH]ccc12` [Compound 491, 2-(2-{[(2S)-2-hydroxypropyl]-oxy}phenyl)-4-[(4-methyl-1H-indol-5-yl)amino]thieno[2,3-b]pyridine-5-carbonitrile], for which inhibition was half-maximal at 177 nM (IC50). The molecule `Cc1c(Nc2c(C#N)cnc3sc(-c4cncc(C=O)c4)cc23)ccc2[nH]ccc12` [Compound 387, 2-(5-formylpyridin-3-yl)-4-[(4-methyl-1H-indol-5-yl)amino]thieno[2,3-b]pyridin-5-carbonitrile] yielded an IC50 of 2 nM. The molecule `COCCOc1ccc(-c2cc3c(Nc4ccc5[nH]ccc5c4C)c(C#N)cnc3s2)cc1OCCOC` [Compound 513, 2-[3,4-bis(2-methoxyethoxy)phenyl]-4-[(4-methyl-1H-indol-5-yl)amino]thieno[2,3-b]pyridine-5-carbonitrile] returned an IC50 of 1610 nM.

As to `N#Cc1cnc2sc(-c3cccc(CN4CC[C@@H](O)C4)c3)cc2c1Nc1ccc2[nH]ccc2c1` [Compound 172, 2-(3-{[(3R)-3-hydroxypyrrolidin-1-yl]methyl}phenyl)-4-(1H-indol-5-ylamino)thieno[2,3-b]pyridine-5-carbonitrile], the IC50 was found to be 69 nM. Molecule `COc1ccc(CN(C)C)c(-c2cc3c(Nc4ccc5[nH]ccc5c4C)c(C#N)cnc3s2)c1` [Compound 515, 2-{2-[(dimethylamino)methyl]-5-methoxyphenyl}-4-[(4-methyl-1H-indol-5-yl)amino]thieno[2,3-b]pyridine-5-carbonitrile] had a half-inhibitory concentration (IC50) of 16 nM.

For orientation: IC50 means the point on the concentration scale where inhibition reaches its midpoint. The low end stands for inhibition by little substance, the high end for a need for much substance.
